Source: patent US9873693B2 (Sunesis Pharmaceuticals, Inc., priority 2006, dated 2018)
Like-named read-outs stand apart in the source and are kept apart here.

Assays:
phosphorylated PDK1 = phosphorylated PDK1 (Homo sapiens (Human), UniProt O15530); assay: PDK1 kinase assay (coupled PDK1/AKT/FAM-crosstide, IMAP); assay type: biochemical; settings: 0.5 nM phosphorylated PDK1, 24 μM ATP; read-out: Inhibition of phospo-PDK1 in vitro IC50
phospho-akt (Thr308) = phospho-akt (Thr308) MSD ELISA in PC-3 cells; assay type: cell-based; settings: Homo sapiens; for EC50: PC-3, 2 h; for inhibition at 1 µM / inhibition at 10 µM: read-out: Percent Inhibition of phospho-Akt (308) By MSD ELISA
How it was run: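 PC-3 cells plated overnight in 10% FBS medium, then treated with three-fold serial compound dilutions in serum-free medium; DMSO-only wells as high control. Lysates captured on BSA-blocked MSD plates overnight at 4 degrees, detection antibody 1 hr RT, electrochemiluminescence read on MSD reader.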

Phospho-T308 Akt = Phospho-T308 Akt detection using immunoblot (western blot) in PC-3 cells; assay type: cell-based; settings: for Reduction of Cellular Levels of Akt p308 By Western: 2 hour incubation, concentration not given in Table 2; for inhibition at 2 µM / inhibition at 5 µM: Homo sapiens, read-out: Percent Inhibition of phospho-Akt (308) By Western
Experimental: A Phospho-T308 Akt detection using immunoblot (western blot) analysis was performed as described below.
PC-3 prostate cells were plated in a 6 well plate in F12K media (Invitrogen, Carlsbad, Calif.) plus 10% FBS (Invitrogen) and placed in incubator overnight. The stock of compound A was a 50 mM solution in DMSO. 1000× dilutions of the compound were made in DMSO. The 1000× dilutions include, 35 mM, 25 mM, 15 mM, 10 mM, 7 mM, 5 mM, and 1 mM. 1 μl of the 1000× dilutions was added to 1 ml F12K media without serum for final concentrations of […]. 1 μl of DMSO was added to 1 ml media with no serum for a control. The 1 ml DMSO or compound plus media was then added to the cells. Following a 2 hour incubation at 37° C., cells were harvested and washed in PBS and subjected to centrifugation at 3,300 rpm for 5 minutes. Cells were lysed in 100 μl of Bio Rad Bioplex buffer containing protease inhibitors (BioRad, Hercules, Calif.) for 30 minutes on ice followed by centrifugation at 13,000 rpm for 5 minutes. The protein content of the supernatant was assayed using DC Protein Assay (BioRad). 25 μl of protein was added to 4× sample buffer (Invitrogen) and sample reducer (Invitrogen) and run on a 4-12% NuPage gel (Invitrogen). Proteins were then transferred to nitrocellulose (Invitrogen). The membrane was blocked in Tris-buffered saline (Sigma, St. Louis, Mo.) plus 0.1% Tween (Sigma) (T-TBS) plus 5% blotting grade milk (BioRad) for 60 minutes. Membranes were then incubated in T-TBS plus 5% BSA (Sigma) plus 1:1000 of anti-phospho akt (Thr 308) (Cell Signaling Technology, Beverly, Mass.) overnight at 4° C. Membranes were washed in T-TBS then incubated in 1:2000 of anti-rabbit-HRP (Cell Signaling) in TTBS plus 5% milk. Membranes were washed again and proteins were visualized with Super Signal West Pico (Pierce, Rockford, Ill.) and using Kodak BioMax MR film (Kodak, Rochester, N.Y.).
Phospho-akt 308 protein bands on the film were quantified using densitometry. An Alpha Imager (Alpha Innotech Corp, San Leandro, Calif.) using AlphaEase FC software version 4.1.0 (Alpha Innotech Corp.) was used to quantitate protein bands. Briefly, a rectangle of equal size was placed around each protein band as well as a background spot on the film. The densitometry values (IDV=Integrated Density Value) obtained for the background spot was then subtracted from the values obtained for the protein bands. These values were used to obtain an EC50 value using non-linear regression analysis in GraphPad Prism Version 4.00 (Graph Pad Prism, San Diego, Calif.). Percent decrease in expression of phosphoh-akt 308 were also measured specifically at 2 μM and 5 μM levels of inhibitor.

dephosphorylated PDK1 = dephosphorylated PDK1 (Homo sapiens (Human), UniProt O15530); assay: PDK1 kinase assay (coupled PDK1/AKT/FAM-crosstide, IMAP); assay type: biochemical; settings: 25 nM un-phosphorylated PDK1, 24 μM ATP; read-out: Inhibition of dephospo-PDK1 in vitro IC50
Sequence of dephosphorylated PDK1 (O15530 51-360): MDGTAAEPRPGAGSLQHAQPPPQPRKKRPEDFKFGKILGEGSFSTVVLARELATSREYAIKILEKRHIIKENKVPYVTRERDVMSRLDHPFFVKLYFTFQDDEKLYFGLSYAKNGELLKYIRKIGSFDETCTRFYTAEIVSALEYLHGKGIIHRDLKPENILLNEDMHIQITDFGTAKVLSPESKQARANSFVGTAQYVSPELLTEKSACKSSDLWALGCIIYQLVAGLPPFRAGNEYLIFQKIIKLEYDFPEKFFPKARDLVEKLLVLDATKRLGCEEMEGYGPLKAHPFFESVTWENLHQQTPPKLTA
Experimental: A PDK1 kinase assay was performed as follows. PDK1 (amino acids 51-360) and AKT2 (amino acids 140-467 fused to PIFtide, amino acids […]) were expressed as N-terminally tagged GST fusion proteins in insect cells and purified to greater than 90% homogeneity. PDK1 protein was divided into two fractions, one of which was subsequently dephosphorylated. To generate dephosphorylated PDK1, the PDK1 was reacted with GST-tagged lambda-phosphatase in vitro. GST was subsequently cleaved proteolytically for both phosphorylated and dephosphorylated PDK1. Protein preparations were run on glutathione Sepharose columns to remove GST and GST-tagged lambda-phosphatase, if present. Phosphorylated PDK1 and dephosphorylated PDK1 were verified by mass-spectrometry. Enzyme activity was determined in a coupled PDK1/AKT/FAM-crosstide assay using either phosphorylated or unphosphorylated PDK1 and phosphorylation of FAM-crosstide was determined by standard IMAP protocol (Molecular Devices). For inhibition studies, compounds were titrated 3-fold in DMSO and diluted 40-fold into assay buffer (10 mM Tris HCl pH7.2; 10 mM MgCl2; 0.01% Triton X-100; 1 mM DTT) containing PDK1, AKT2, and FAM-crosstide. (final concentrations: 25 nM un-phosphorylated PDK1 or 0.5 nM phosphorylated PDK1, 30 nM unphosphorylated AKT2, and 100 nM crosstide substrate). The kinase reaction was initiated by adding ATP to a final concentration of 24 μM for both forms of PDK1 and incubated at 25° C. for 30 min. To detect assay product, the kinase reaction was combined with Progressive Binding Solution (1:600 Progressive Binding Reagent, 50% Buffer A, 50% Buffer B, Molecular Devices) in a 1:3 ratio. The mixture was incubated for 2 hours at 25° C. and the plate was scanned on an Analyst AD with excitation at 485 nm and emission at 530 nm. The fluorescence polarization value “P” is defined by the equation below. The value “mP” is generated by multiplying the P value for each reaction well by a factor of 1000. The value “ΔmP” for each well is the mP value for that well minus the mP value for the average negative control. P=(Fpar−Fperp)/(Fpar+Fperp) Eq.:
Where “par” is fluorescence intensity parallel to the excitation plane; and “perp” is fluorescence intensity perpendicular to the excitation plane. ΔmP values were plotted as a function of compound concentration and the data were analyzed with a 4-parameter fit using GraphPad Prism software.

[1] = read-out: Inhibition of P308 Akt in cells using MSD EC50
[2] = read-out: Reduction of Cellular Levels of Akt p308 By MSD ELISA (EC50 μM)
[3] = PC-3 cells, 2 hours, no serum, read-out: Inhibition of P308 Akt in cells using MSD EC50
[4] = PC-3 cells, 2 hours, no serum, read-out: Reduction of Cellular Levels of Akt p308 By MSD ELISA (EC50 μM)

Sequence of phosphorylated PDK1 (O15530 51-360): as above

| Compound | IC50 (phosphorylated PDK1) | EC50 (phospho-akt (Thr308); [1]) | EC50 (phospho-akt (Thr308); [2]) | Reduction of Cellular Levels of Akt p308 By Western (Phospho-T308 Akt) | inhibition at 2 µM (Phospho-T308 Akt) | EC50 (phospho-akt (Thr308); [3]) | EC50 (phospho-akt (Thr308); [4]) | inhibition at 5 µM (Phospho-T308 Akt) | inhibition at 1 µM (phospho-akt (Thr308); PC-3 cells) | inhibition at 10 µM (phospho-akt (Thr308); PC-3 cells) | IC50 (dephosphorylated PDK1) |
| --- | --- | --- | --- | --- | --- | --- | --- | --- | --- | --- | --- |
| NC(=O)C[C@@H](NC(=O)c1cccn(Cc2ccc(F)c(F)c2)c1=O)c1ccc(-c2c[nH]c3ncccc23)s1 [Cpd 19] | < 500 nM | 1 to 5 µM | 1 to 5 µM | bbb (inhibition of more than 75%) | > 75% |  |  |  |  |  |  |
| CNC(=O)C[C@@H](NC(=O)c1cccn(Cc2ccc(F)c(F)c2)c1=O)c1ccc(-c2c[nH]c3ncccc23)s1 [Cpd 18] | < 500 nM |  |  | bb (inhibition of from 25% to 75%) | 25 to 75% | 1 to 5 µM | 1 to 5 µM |  |  |  |  |
| O=C(O)c1cnc2[nH]cc(-c3ccc(CNC(=O)c4cccn(Cc5ccc(F)c(F)c5)c4=O)s3)c2c1 [Cpd 21] | < 500 nM |  | > 5 µM | b (inhibition of less 25%) | < 25% |  |  |  |  |  |  |
| O=C(NCc1ccc(-c2c[nH]c3ncc(F)cc23)s1)c1cccn(Cc2ccc(F)c(F)c2)c1=O [Cpd 11] | < 500 nM |  |  | bbb (inhibition of more than 75%) |  | < 1 µM | < 1 µM | > 75% |  |  |  |
| O=C(NCc1cccc(-c2ccc3nccn3c2)c1)c1cccn(Cc2ccc(F)c(F)c2)c1=O [Cpd 336] |  |  |  |  |  |  |  | > 75% | 25 to 75% | > 75% |  |
| CC(=O)NC[C@@H](NC(=O)c1cccn(Cc2ccc(F)c(F)c2)c1=O)c1nc(-c2c[nH]c3ncccc23)cs1 [Cpd 136] |  |  |  |  |  |  |  | 25 to 75% |  |  |  |
| CN(C)C(=O)C[C@@H](NC(=O)c1cccn(Cc2ccc(F)c(F)c2)c1=O)c1ccc(-c2c[nH]c3ncccc23)s1 [Cpd 237] | < 500 nM |  |  |  |  | > 5 µM |  |  | < 25% | 25 to 75% | < 500 nM |
| O=C(NCc1noc(-c2c[nH]c3ncccc23)n1)c1cccn(Cc2cc(F)cc(F)c2)c1=O [Cpd 150] | < 500 nM |  |  |  |  | > 5 µM |  |  |  |  | < 500 nM |
| O=C(NCc1cnc(-c2c[nH]c3ncccc23)s1)c1cccn(Cc2ccc(Cl)c(Cl)c2)c1=O [Cpd 323] | < 500 nM |  |  |  |  | 1 to 5 µM | 1 to 5 µM |  |  |  | < 500 nM |
| O=C(C[C@@H](NC(=O)c1cccn(Cc2ccc(F)c(F)c2)c1=O)c1nnc(-c2c[nH]c3ncccc23)o1)NCCO [Cpd 297] | < 500 nM |  |  |  |  |  |  |  | < 25% | < 25% | < 500 nM |
| CC(C)n1c(=O)[nH]c2cc(OCCNC(=O)c3cccn(Cc4ccc(F)c(F)c4)c3=O)ccc21 [Cpd 280] | < 500 nM |  |  |  |  | > 5 µM |  |  | 25 to 75% | 25 to 75% | < 500 nM |
| O=C(NCc1ccc(-c2c[nH]c3ncc(Cl)cc23)s1)c1cccn(Cc2ccc(F)c(F)c2)c1=O [Cpd 23] | < 500 nM |  |  |  |  | > 5 µM | > 5 µM |  |  |  | < 500 nM |
| O=C(NCCOc1cc2[nH]c(=O)[nH]c2cn1)c1cccn(Cc2ccc(F)c(F)c2)c1=O [Cpd 279] | < 500 nM |  |  |  |  |  | > 5 µM |  |  |  | < 500 nM |
| O=C(NCc1noc(-c2c[nH]c3ncccc23)n1)c1cc(Cl)cn(Cc2ccc(F)cc2)c1=O [Cpd 319] | < 500 nM |  |  |  |  | > 5 µM |  |  | < 25% | 25 to 75% | < 500 nM |
| O=C(N[C@H](COc1ccc2[nH]c(=O)[nH]c2c1)c1ccc(F)cc1)c1cccn(Cc2ccc(C(F)(F)F)cc2)c1=O [Cpd 148] | < 500 nM |  |  |  |  | 1 to 5 µM | 1 to 5 µM |  |  |  | < 500 nM |
| O=C(NCc1ccc(-c2n[nH]c3ncccc23)s1)c1cccn(Cc2ccc(F)c(F)c2)c1=O [Cpd 7] | < 500 nM |  |  |  |  | < 1 µM | < 1 µM |  | 25 to 75% | > 75% | < 500 nM |
| COC(=O)C[C@@H](NC(=O)c1cccn(Cc2ccc(F)c(F)c2)c1=O)c1ccc(-c2c[nH]c3ncccc23)s1 [Cpd 236] | 500 to 10000 nM |  |  |  |  |  | > 5 µM |  |  |  | < 500 nM |
| O=C(c1cccn(Cc2ccc(F)c(F)c2)c1=O)N1CCc2ccc(-c3c[nH]c4ncccc34)cc2C1 [Cpd 232] | 500 to 10000 nM |  |  |  |  | > 5 µM |  |  |  |  | 500 to 10000 nM |
| O=C(NCc1cccc(-c2ccc(=O)[nH]c2)c1)c1cccn(Cc2ccc(F)c(F)c2)c1=O [Cpd 220] | 500 to 10000 nM |  |  |  |  |  |  |  | 25 to 75% | 25 to 75% | 500 to 10000 nM |
| O=C(NCc1ccc(-c2cccc3[nH]ncc23)s1)c1cccn(Cc2ccc(F)c(F)c2)c1=O [Cpd 58] | < 500 nM |  |  |  |  | 1 to 5 µM |  |  |  |  | < 500 nM |
| COC(=O)c1cc(-c2c[nH]c3ncccc23)cc(CNC(=O)c2cccn(Cc3ccc(F)c(F)c3)c2=O)n1 [Cpd 175] | < 500 nM |  |  |  |  | < 1 µM |  |  |  |  | < 500 nM |
| O=C(NCc1noc(-c2c[nH]c3ncccc23)n1)c1cc(Cl)cn(Cc2ccc(Cl)c(F)c2)c1=O [Cpd 316] | < 500 nM |  |  |  |  |  |  |  | 25 to 75% | 25 to 75% | < 500 nM |
| O=C(NCc1ccc(-c2ccc3[nH]ncc3c2)s1)c1cccn(Cc2ccc(F)c(F)c2)c1=O [Cpd 52] | < 500 nM |  |  |  |  | 1 to 5 µM |  |  |  |  | < 500 nM |
| NC(=O)C(NC(=O)c1cccn(Cc2ccc(F)c(F)c2)c1=O)c1ccc(-c2c[nH]c3ncccc23)s1 (stereo not drawn) [Cpd 24] | < 500 nM | 1 to 5 µM | 1 to 5 µM |  |  |  |  |  |  |  | < 500 nM |
